Laboratory results published in patent US20260070902A1, “SULFONYL DERIVATIVES AS CCR6 INHIBITORS” (Hoffmann-La Roche Inc., priority 2022, published 2026).

Key:
Format in all cases: cell-based
human CCR6 [1] = molecular target: T1, human CCR6 (Homo sapiens, UniProt P51684); assay: CHO-K1 CCR6 chemotaxis assay towards CCL20; settings: relative -Log IC50; CHO-K1 cells overexpressing human CCR6; migration towards 100 ng/ml CCL20; 4 h
T1 sequence (P51684 1-374): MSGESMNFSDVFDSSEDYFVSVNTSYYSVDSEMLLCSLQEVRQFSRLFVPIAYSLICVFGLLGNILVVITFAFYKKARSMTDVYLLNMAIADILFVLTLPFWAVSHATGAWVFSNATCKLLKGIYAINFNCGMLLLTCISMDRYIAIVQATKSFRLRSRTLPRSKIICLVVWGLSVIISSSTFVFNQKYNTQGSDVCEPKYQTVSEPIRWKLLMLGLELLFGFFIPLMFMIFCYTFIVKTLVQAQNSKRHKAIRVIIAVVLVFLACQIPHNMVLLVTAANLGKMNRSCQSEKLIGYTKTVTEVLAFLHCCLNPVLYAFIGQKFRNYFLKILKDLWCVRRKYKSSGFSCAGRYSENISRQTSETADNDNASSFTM
Method in brief: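 Human CCR6-overexpressing CHO-K1 cells (2*10^6 cells/ml) were preincubated 30 min at 37 °C with compound (0.2% DMSO), then allowed to migrate 4 h through 8 µm Transwell pores toward 100 ng/ml CCL20. Migrated cells were counted by CellTiter Glo. −Log IC50 came from four-parameter fits normalised to DMSO without/with CCL20.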

human CCR6 [2] = molecular target: T1, human CCR6; assay: Human CCR6-CRE reporter assay; set-up: The second construct contained the open reading frame of human CCR6 in the pUNO1 backbone; host or cells: 293FT cells; settings: relative -Log IC50; 293FT cells transfected with human CCR6 and CRE-luciferase reporter; 6 μM Forskolin, 6 nM CCL20; 5 h
Method in brief: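 293FT cells transiently co-transfected with human CCR6 and a CRE-luc2P reporter, used 48 h later. Compounds incubated with cells in medium containing 6 μM Forskolin and 6 nM CCL20 (assay-medium levels), 0.1% DMSO final, 5 h at 37° C; luminescence read, relative −Log IC50 from four-parameter fit.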

Human CD4+ T cells = assay: CD4+ T cells chemotaxis assay towards CCL20; settings: Homo sapiens, CD4+ T cell, 3 h, relative -Log IC50, human CD4+ T cells stimulated with anti-CD3 and anti-CD28, migration towards 150 ng/ml CCL20
Text: CD4+ T Cells Chemotaxis Assay Towards CCL20
Human CD4+ T cells were isolated from buffy coats of healthy donors using a CD4+ T Cell Isolation Kit (Miltenyi Biotec130-096-533). Isolated T cells were stimulated overnight with anti-CD3 and anti-CD28 antibodies (Biolegend 300314/302934) in growth medium (RPMI1640, 10% heat-inactivated FBS, 1× pen/strep (Gibco 15140)). For the chemotaxis assay, Corning Transwell plates were used with a pore size of 5 m (Corning 3388). T cells were counted and diluted to 6*10^6 cells/ml in chemotaxis medium (RPMI1640, 1% BSA, pen/strep). Compounds were four-fold serially diluted in DMSO. Further dilutions were made in chemotaxis medium. Cells were incubated with test compounds for 30 min at 37° C. prior to initiation of the assay (3*10^6 cells/ml). Final DMSO concentration in the assay was 0.2%. Wells of the Transwell plates were filled with 200 μl chemotaxis medium containing 150 ng/ml CCL20 (R&D systems 360-MP). 50 μl of the cell/compound suspension was added to the inserts of the Transwell plates (150,000 cells/insert). The Transwell plates were placed in an incubator at 37° C., 5% CO2 for 3 h. After 3 h, the number of migrated cells was quantified using CellTiter Glo (Promega). Percentage inhibition values were calculated based on the low and high signal obtained with 0.2% DMSO in chemotaxis medium without and with CCL20, respectively. The relative −Log IC50 was determined with GraphPad Prism 9 using a four-parameter dose-response model.

Row | SMILES | IC50 (human CCR6 [1]) [nM] | IC50 (human CCR6 [2]) [nM] | IC50 (Human CD4+ T cells) [nM]
1 | CC(C)c1nnc2ccc(-c3ccc(S(=N)(=O)[C@H]4CC[C@H](Nc5ccc(S(F)(F)(F)(F)F)cc5)CC4)cc3)cn12 (relative stereo) [Example 102, {4-[3-(propan-2-yl)-[1,2,4]triazolo[4,3-a]pyridin-6-yl]phenyl}[trans-4-{[4-(pentafluoro-λ^6-sulfanyl)phenyl]Amino}cyclohexyl](imino)-λ^6-sulfanone] | 158 | 126 | 50.1
2 | Cc1[nH]nc2ccc(-c3ccc(S(=O)(=O)[C@H]4CC[C@H](Nc5ccc(S(F)(F)(F)(F)F)cc5)CC4)cc3)cc12 [Example 6, 4-(pentafluoro-λ^6-sulfanyl)-N-[trans-4-[4-(3-methyl-2H-indazol-5-yl)benzenesulfonyl]cyclohexyl]aniline] | 25.1 | 39.8 | 0.631
3 | NC(=O)c1cc(-c2ccc(S(=O)(=O)[C@H]3CC[C@H](Nc4ccc(S(F)(F)(F)(F)F)cc4)CC3)cc2)ccn1 [Example 10, 4-(4-{[trans-4-{[4-(pentafluoro-λ^6-sulfanyl)phenyl]Amino}cyclohexyl]sulfonyl}phenyl)pyridine-2-carboxamide] | 5.01 | 79.4 | 2
4 | Cc1nnc2ccc(-c3ccc(S(=O)(=O)[C@H]4CC[C@H](Nc5ccc(S(F)(F)(F)(F)F)cc5)CC4)cc3)cn12 [Example 11, 4-(pentafluoro-λ^6-sulfanyl)-N-[trans-4-(4-{3-methyl-[1,2,4]triazolo[4,3-a]pyridin-6-yl}benzenesulfonyl)cyclohexyl]aniline] | 25.1 | 100 | 3.98
5 | O=S(=O)(c1ccc(-c2ccc3nccn3c2)cc1)[C@H]1CC[C@@H](Nc2ccc(S(F)(F)(F)(F)F)cc2)CC1 [Example 18, 4-(pentafluoro-λ^6-sulfanyl)-N-[cis-4-(4-{imidazo[1,2-a]pyridin-6-yl}benzenesulfonyl)cyclohexyl]aniline] | 200 | 158 | 6.31
6 | CN(C)C(=O)c1ccc(-c2ccc(S(=O)(=O)[C@H]3CC[C@H](Nc4ccc(S(F)(F)(F)(F)F)cc4)CC3)cc2)cn1 [Example 20, N,N-dimethyl-5-(4-{[trans-4-{[4-(pentafluoro-λ^6-sulfanyl)phenyl]Amino}cyclohexyl]sulfonyl}phenyl)pyridine-2-carboxamide] | 398 | 100 | 31.6
7 | NC(=O)c1nnc2ccc(-c3ccc(S(=O)(=O)N4CCC(Nc5ccc(S(F)(F)(F)(F)F)cc5)CC4)cc3)cn12 [Example 26, 6-{4-[(4-{[4-(pentafluoro-λ^6-sulfanyl)phenyl]Amino}piperidin-1-yl)sulfonyl]phenyl}-[1,2,4]triazolo[4,3-a]pyridine-3-carboxamide] | 100 | 50.1 | 15.8
8 | Cc1nnc2ccc(-c3ccc(S(=O)(=O)N4CCC(Nc5ccc(S(F)(F)(F)(F)F)cc5)CC4)cc3)cn12 [Example 27, 1-(4-{3-methyl-[1,2,4]triazolo[4,3-a]pyridin-6-yl}benzenesulfonyl)-N-[4-(pentafluoro-λ^6-sulfanyl)phenyl]piperidin-4-amine] | 63.1 | 63.1 | 5.01
9 | NC(=O)c1cnc2ccc(-c3ccc(S(=O)(=O)[C@H]4CC[C@H](Nc5ccc(S(F)(F)(F)(F)F)cc5)CC4)cc3)cn12 [Example 34, 6-(4-{[trans-4-{[4-(pentafluoro-λ^6-sulfanyl)phenyl]Amino}cyclohexyl]sulfonyl}phenyl)imidazo[1,2-a]pyridine-3-carboxamide] | 39.8 | 200 | 63.1
10 | CC(C)c1nnc2ccc(-c3ccc(S(=O)(=O)[C@H]4CC[C@H](Nc5ccc(S(F)(F)(F)(F)F)cc5)CC4)cc3)cn12 [Example 35, 4-(pentafluoro-λ^6-sulfanyl)-N-[trans-4-{4-[3-(propan-2-yl)-[1,2,4]triazolo[4,3-a]pyridin-6-yl]benzenesulfonyl}cyclohexyl]aniline] | 3.98 | 79.4 | 0.501
11 | Cc1nc2cc(-c3ccc(S(=O)(=O)[C@H]4CC[C@H](Nc5ccc(S(F)(F)(F)(F)F)cc5)CC4)cc3)ccn2n1 [Example 41, 4-(pentafluoro-λ^6-sulfanyl)-N-[trans-4-(4-{2-methyl-[1,2,4]triazolo[1,5-a]pyridin-7-yl}benzenesulfonyl)cyclohexyl]aniline] | 79.4 | 158 | 5.01
12 | CC(C)c1nnc2ccc(-c3ccc(S(=O)(=O)[C@H]4CC[C@H](Nc5ccc(S(F)(F)(F)(F)F)cc5)CC4)cc3)nn12 [Example 50, 4-(pentafluoro-λ^6-sulfanyl)-N-[trans-4-{4-[3-(propan-2-yl)-[1,2,4]triazolo[4,3-b]pyridazin-6-yl]benzenesulfonyl}cyclohexyl]aniline] | 100 | 126 | 25.1
13 | CC(C)c1nnc2cnc(-c3ccc(S(=O)(=O)[C@H]4CC[C@H](Nc5ccc(S(F)(F)(F)(F)F)cc5)CC4)cc3)cn12 [Example 51, 4-(pentafluoro-λ^6-sulfanyl)-N-[trans-4-{4-[3-(propan-2-yl)-[1,2,4]triazolo[4,3-a]pyrazin-6-yl]benzenesulfonyl}cyclohexyl]aniline] | 7.94 | 63.1 | 2
14 | O=S(=O)(c1ccc(-c2cc(C(F)(F)F)c3nccn3c2)cc1)[C@H]1CC[C@H](Nc2ccc(S(F)(F)(F)(F)F)cc2)CC1 [Example 151, 4-(pentafluoro-λ^6-sulfanyl)-N-[trans-4-{4-[8-(trifluoromethyl)imidazo[1,2-a]pyridin-6-yl]benzenesulfonyl}cyclohexyl]aniline] |  | 63.1 | 6.31
15 | O=c1[nH]ccn2cc(-c3ccc(S(=O)(=O)[C@H]4CC[C@H](Nc5ccc(S(F)(F)(F)(F)F)cc5)CC4)cc3)cc12 [Example 154, 7-(4-{[trans-4-{[4-(pentafluoro-λ^6-sulfanyl)phenyl]amino}cyclohexyl]sulfonyl}phenyl)-1H,2H-pyrrolo[1,2-a]pyrazin-1-one] |  | 126 | 7.94
16 | N#Cc1cc(-c2ccc(S(=O)(=O)[C@H]3CC[C@H](Nc4ccc(S(F)(F)(F)(F)F)cc4)CC3)cc2)cn2ccnc12 [Example 160, 6-(4-{[trans-4-{[4-(pentafluoro-λ^6-sulfanyl)phenyl]amino}cyclohexyl]sulfonyl}phenyl)imidazo[1,2-a]pyridine-8-carbonitrile] |  | 50.1 | 3.98
17 | O=S(=O)(c1ccc(-c2ccc3nnc([C@@H]4CCCN4)n3c2)cc1)[C@H]1CC[C@H](Nc2ccc(S(F)(F)(F)(F)F)cc2)CC1 [Example 161, 4-(pentafluoro-λ^6-sulfanyl)-N-[trans-4-(4-{3-[(2S)-pyrrolidin-2-yl]-[1,2,4]triazolo[4,3-a]pyridin-6-yl}benzenesulfonyl)cyclohexyl]aniline] |  | 79.4 | 7.94
18 | O=S(=O)(c1ccc(-c2ccc3nnc(C4CNC4)n3c2)cc1)[C@H]1CC[C@H](Nc2ccc(S(F)(F)(F)(F)F)cc2)CC1 [Example 168, 4-(pentafluoro-λ^6-sulfanyl)-N-[trans-4-{4-[3-(azetidin-3-yl)-[1,2,4]triazolo[4,3-a]pyridin-6-yl]benzenesulfonyl}cyclohexyl]aniline] |  | 251 | 100
